Here are results for 15 molecules from patent US4459304A, “Combating pests with 2-anilino-3,5-dinitro-benzotrifluorides” (Bayer Aktiengesellschaft, priority 1977, dated 1984).

Holding throughout (assay type): in vivo
Experiment [1] has as its system two-spotted spider mite (Tetranychus urticae). Kind of experiment: Tetranychus test (resistant), degree of destruction of spider mites on bean plants. The settings on record: 48 h, after 2 days; for mortality at 0.0001 %: active compound concentration 0.0001%; for mortality at 0.001 %: active compound concentration 0.001%. The procedure:
(§1) Solvent: 3 parts by weight of dimethylformamide
(§2) Emulsifier: 1 part by weight of alkylaryl polyglycol ether
To produce a suitable preparation of active compound, 1 part by weight of the active compound was mixed with the stated amount of solvent and the stated amount of emulsifier and the concentrate was diluted with water to the desired concentration.
Bean plants (Phaseolus vulgaris) which were heavily infested with the two-spotted spider mite (Tetranychus urticae) in all stages of development were sprayed with the preparation of the active compound until dripping wet.
After the specified periods of time, the degree of destruction was determined as a percentage: 100% meant that all of the spider mites were killed whereas 0% meant that none of the spider mites were killed.

A further experiment relates to Laphygma exempta (eggs). Kind of experiment: Development-inhibiting action, Laphygma exempta (eggs). The settings on record: concentration 10 ppm, up to larvae of third stage.
Description: (§3) Examples 8 and 9, which are given below, show the arthropod development-inhibiting action of the compounds according to the invention without implying a limitation in respect of the breadth of action of these compounds. In the experiments, the morphological changes, such as half-pupated insects, incompletely slipped larvae or caterpillars, defective wings, pupal cuticula in the case of imagos and the like are rated as malformations over the entire stated development of the test insects. The sum of the morphological malformations, together with the insects killed during the sloughing or the metamorphosis, is given in percent of the test insects.
Test insect: Laphygma exempta (eggs)
Solvent: 10 parts by weight of acetone
as §2
To produce a suitable preparation of active compound, 2 parts by weight of active compound were mixed with the stated amount of solvent, emulsifier and sufficient water to produce a 1% strength mixture, which was diluted with water to the desired concentration.
Deposited eggs, at the rate of 30 eggs on a filter-paper, were moistened with 1 ml of active compound solution of the stated concentration in ppm (parts per million) and were observed, in plastic boxes, until the young larvae slipped. The young larvae were fed with corn leaves which had been sprayed with the stated concentration of active compound solution on the same day as the eggs.
The development of the test insects was observed up to the larvae of the third stage.
As a control, deposited eggs were treated in the same manner with solvent and emulsifier of the corresponding concentration, and feeding was carried out with corn leaves.

In experiment [2] the test system is Ceratitis capitata (eggs). Kind of experiment: Development-inhibiting action, Ceratitis capitata (eggs). The settings on record: concentration 10 ppm in synthetic feed, eggs until flies slipped.
Description: as §3
Test insect: Ceratitis capitata (eggs), 20 specimens
Feed: Synthetic feed (carrot powder with yeast powder)
Solvent: 20 parts by weight of acetone
Emulsifier: 5 parts by weight of alkylaryl polyglycol ether
To produce a suitable preparation of active compound, 4 parts by weight of active compound were mixed with the stated amount of solvent, emulsifier and sufficient water to produce a 1% strength mixture which was diluted with water to the desired concentration.
The eggs of the test insects were placed on a dish with synthetic feed, into which the selected concentration of the active compound mixture was incorporated so that the stated amount of active compound in ppm (parts per million) was obtained. The development was observed until the flies slipped.
As a control, synthetic feed mixed only with solvent and emulsifier of the stated concentration was presented.

Experiment [3] concerns mustard beetle larvae (Phaedon cochleariae). Kind of experiment: Phaedon larvae test, degree of destruction on cabbage leaves. The note with it: 72 h, after 3 days; for mortality at 0.001 %: active compound concentration 0.001%; for mortality at 0.01 %: active compound concentration 0.01%. On the procedure: as §1
Emulsifier: 1 part by weight of alkylarly polyglycol ether
To produce a suitable preparation of active compound, 1 part by weight of the active compound was mixed with the stated amount of solvent containing the stated amount of emulsifier and the concentrate was diluted with water to the desired concentration.
Cabbage leaves (Brassica oleracea) were sprayed with the preparation of the active compound until dripping wet and were then infested with mustard beetle larvae (Phaedon cochleariae).
After the specified periods of time, the degree of destruction was determined in %: 100% meant that all of the beetle larvae had been killed whereas 0% meant that none of the beetle larvae had been killed.

In experiment [1], `CSc1ccc(Nc2c([N+](=O)[O-])cc([N+](=O)[O-])cc2C(F)(F)F)c(C(F)(F)F)c1` [Compound 10] gave a mortality at 0.0001 % of 50% and a mortality at 0.001 % of 98%.
In experiment [1], `O=[N+]([O-])c1cc([N+](=O)[O-])c(Nc2c(Cl)cccc2Cl)c(C(F)(F)F)c1` [A, reference compound] came in with a mortality at 0.0001 % of 0% and a mortality at 0.001 % of 98%. This molecule also registered an inhibition at 10 ppm with Laphygma exempta (eggs) of 20%.
As for `O=[N+]([O-])c1cc([N+](=O)[O-])c(Nc2c(Cl)cc(S(=O)(=O)C(F)(F)F)cc2Cl)c(C(F)(F)F)c1` [Compound 8], in experiment [2], 10 ppm produced 100% inhibition.
In experiment [3], `O=[N+]([O-])c1cc([N+](=O)[O-])c(Nc2cc(S(=O)(=O)C(F)(F)F)ccc2Cl)c(C(F)(F)F)c1` [Compound 14] yielded a mortality at 0.001 % of 80% and a mortality at 0.01 % of 100%.
For the molecule `O=[N+]([O-])c1cc([N+](=O)[O-])c(Nc2cc(SC(F)(F)F)ccc2Cl)c(C(F)(F)F)c1` [Compound 22], the mortality at 0.001 % in experiment [1] worked out at 100%.
In experiment [1], `O=[N+]([O-])c1cc([N+](=O)[O-])c(Nc2ccccc2SC(F)(F)F)c(C(F)(F)F)c1` [Compound 21] returned a mortality at 0.0001 % of 50% and a mortality at 0.001 % of 100%.
In experiment [1], `O=[N+]([O-])c1cc([N+](=O)[O-])c(Nc2ccc(OC(F)(F)F)c(Cl)c2)c(C(F)(F)F)c1` [Compound 9] returned a mortality at 0.0001 % of 100% and a mortality at 0.001 % of 100%. In the experiment with Laphygma exempta (eggs), this molecule registered an inhibition at 10 ppm of 100%. The same molecule showed an inhibition at 10 ppm in experiment [2] of 100%.
In experiment [1], `O=[N+]([O-])c1cc([N+](=O)[O-])c(Nc2cccc(SC(F)(F)F)c2)c(C(F)(F)F)c1` [Compound 25] yielded a mortality at 0.0001 % of 95% and a mortality at 0.001 % of 100%.
In experiment [1], `O=[N+]([O-])c1cc([N+](=O)[O-])c(Nc2ccc(SC(F)(F)F)cc2)c(C(F)(F)F)c1` [Compound 4] showed a mortality at 0.0001 % of 99% and a mortality at 0.001 % of 100%. In addition, in experiment [3], the mortality at 0.001 % stood at 50% and the mortality at 0.01 % stood at 100%.
`O=[N+]([O-])c1cc([N+](=O)[O-])c(Nc2ccc(OC(F)(F)F)cc2Cl)c(C(F)(F)F)c1` [Compound 13, 2-(2-chloro-4-trifluoromethoxy-anilino)-3,5-dinitro-benzotrifluoride]: the mortality at 0.0001 % in experiment [1] came to 100%. In addition, the values for the mortality at 0.001 % in experiment [1] and in experiment [3] were 100% and 85%, respectively. In addition, the mortality at 0.01 % in experiment [3] came to 100%. Also, the inhibition at 10 ppm (with Laphygma exempta (eggs); in experiment [2]) was 100% each time.
Regarding `O=[N+]([O-])c1cc([N+](=O)[O-])c(Nc2ccc(OC(F)(F)F)cc2)c(C(F)(F)F)c1` [Compound 1, 2-(4-trifluoromethoxy-anilino)-3,5-dinitro-benzotrifluoride], in experiment [1], the mortality at 0.0001 % is 70% and the mortality at 0.001 % is 100%. The inhibition at 10 ppm in experiment [2] is 100%.
In turn, `O=[N+]([O-])c1cc([N+](=O)[O-])c(Nc2ccc(S(=O)(=O)C(F)(F)F)cc2Cl)c(C(F)(F)F)c1` [Compound 7] registered an inhibition at 10 ppm in experiment [2] of 100%.
Regarding `O=[N+]([O-])c1cc([N+](=O)[O-])c(Nc2cccc(OC(F)(F)F)c2)c(C(F)(F)F)c1` [Compound 24], in experiment [1], the mortality at 0.0001 % stood at 95% and the mortality at 0.001 % is 100%.
The like results for `O=[N+]([O-])c1cc([N+](=O)[O-])c(Nc2ccc3c(c2)C(F)(F)OC(F)(F)O3)c(C(F)(F)F)c1` [Compound 2] were, in that order, 100% and 100%.
In experiment [3], `O=[N+]([O-])c1cc([N+](=O)[O-])c(Nc2cc(Cl)ccc2Cl)c(C(F)(F)F)c1` [B, reference compound] had a mortality at 0.001 % of 0% and a mortality at 0.01 % of 100%.
